Experimental data from patent publication US9770026B2, “Substituted pyrimidine compound and uses thereof” (Shenyang Sinochem Agrochemicals R&D Co., Ltd., priority 2012, dated 2017).

Experiments:
[1] = test system: Diamond back moth; assay: insecticidal activity against diamond back moth, airbrush spray; assay type: in vivo; conditions: for control (test results against diamond back moth): mortality after 72 hrs
How it was run: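 Airbrush leaf-disc spray test: both faces of 2 cm cabbage discs received 0.5 ml of test solution at 0.7 kg/cm^2. Solutions were made in acetone:methanol (1:1) and brought to concentration with 0.1% Tween 80 in water. Ten second-instar larvae per disc, triplicates, were held at 25° C and 60˜70% R.H., with mortality recorded at 72 hrs.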

[2] = test system: armyworm; assay: bioactivity test against armyworm, airbrush spray; assay type: in vivo; conditions: for control (test results against armyworm): mortality after 72 h
[3] = test system: Green peach aphids (Myzus Persicae Sulzer); assay: bioactivity test against green peach aphid, airbrush foliar spray; assay type: in vivo; conditions: for Insecticidal activity against peach aphid (%): contrastive test; for control (test results against green peach aphid): death rate after 48 hrs
How it was run: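 Death rate was scored at 48 hrs, held at 25±1 C and 60±5% RH, following airbrush foliar spray (0.5 mL, 10 psi) onto cabbage leaf discs bearing about 15-30 aphids. Test solutions: compound dissolved in 1:1 acetone:methanol, brought to concentration with 0.1% tween 80 water.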

[4] = test system: carmine spider mite; assay: bioactivity test against carmine spider mite, airbrush spray; assay type: in vivo; conditions: for control against carmine spider mite: mortality after 72 hrs
How it was run: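 Broadbean seedlings infested with adult mites were sprayed with compound (acetone/methanol stock diluted in 0.1% Tween 80 water) by airbrush at 0.7 kg/cm^2, 0.5 ml. Three replicates were run. Mortality was scored after 72 hrs.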

[5] = test system: corn rust; assay: protectant activity in vivo against corn rust; conditions: for control effect against corn rust (%): protectant activity
[6] = test system: wheat powdery mildew; assay: protectant activity in vivo against wheat powdery mildew; conditions: for control effect against wheat powdery mildew (%): protectant activity
[7] = test system: cucumber downy mildew; assay: protectant activity in vivo against cucumber downy mildew; conditions: for control effect against cucumber downy mildew (%): protectant activity

## CCc1ncnc(NCCc2ccc(Oc3ccc(C#N)cc3F)cc2)c1Cl [II-482]
[1]; 10 mg/L
  Insecticidal activity against diamond back moth (%): 60%
[1]; 100 mg/L
  Insecticidal activity against diamond back moth (%): 100%
[1]; 600 mg/L
  Insecticidal activity against diamond back moth (%): 100%
[1]; 100 ppm
  control (test results against diamond back moth): 100%
[1]; 600 ppm
  control (test results against diamond back moth): 100%
[2]; 10 mg/L
  Insecticidal activity against armyworm (%): 80%
[2]; 100 mg/L
  Insecticidal activity against armyworm (%): 100%
[2]; 600 mg/L
  Insecticidal activity against armyworm (%): 100%
[2]; 100 ppm
  control (test results against armyworm): 100%
[2]; 600 ppm
  control (test results against armyworm): 100%
[3]; 1.25 mg/L
  Insecticidal activity against peach aphid (%): 100%
[3]; 2.5 mg/L
  Insecticidal activity against peach aphid (%): 100%
[3]; 5 mg/L
  Insecticidal activity against peach aphid (%): 100%
[3]; 10 mg/L
  Insecticidal activity against peach aphid (%): 100%
[3]; 100 mg/L
  Insecticidal activity against peach aphid (%): 100%
[3]; 600 mg/L
  Insecticidal activity against peach aphid (%): 100%
[3]; 2.5 ppm
  control (test results against green peach aphid): 100%
[3]; 5 ppm
  control (test results against green peach aphid): 100%
[3]; 10 ppm
  control (test results against green peach aphid): 100%
[3]; 100 ppm
  control (test results against green peach aphid): 100%
[3]; 600 ppm
  control (test results against green peach aphid): 100%
[4]; 2.5 mg/L
  Insecticidal activity against carmine spider mite (% ): 93%
[4]; 5 mg/L
  Insecticidal activity against carmine spider mite (% ): 100%
[4]; 10 mg/L, contrastive test
  Insecticidal activity against carmine spider mite (% ): 100%
[4]; 100 mg/L, contrastive test
  Insecticidal activity against carmine spider mite (% ): 100%
[4]; 600 mg/L, contrastive test
  Insecticidal activity against carmine spider mite (% ): 100%
[4]; 5 ppm
  control against carmine spider mite: 100%
[4]; 10 ppm
  control against carmine spider mite: 100%
[4]; 100 ppm
  control against carmine spider mite: 100%
[4]; 600 ppm
  control against carmine spider mite: 100%
[5]; 6.25 mg/L
  control effect against corn rust (%): 100%
[5]; 25 mg/L
  control effect against corn rust (%): 100%
[5]; 100 mg/L
  control effect against corn rust (%): 100%
[5]; 400 mg/L
  control effect against corn rust (%): 100%
[5]; 6.25 ppm
  protectant activity against corn rust in vivo: 100%
[5]; 25 ppm
  protectant activity against corn rust in vivo: 100%
[5]; 100 ppm
  protectant activity against corn rust in vivo: 100%
[5]; 400 ppm
  protectant activity against corn rust in vivo: 100%
[6]; 6.25 mg/L
  control effect against wheat powdery mildew (%): 98%
[6]; 25 mg/L
  control effect against wheat powdery mildew (%): 100%
[6]; 100 mg/L
  control effect against wheat powdery mildew (%): 100%
[6]; 400 mg/L
  control effect against wheat powdery mildew (%): 100%
[6]; 25 ppm
  protectant activity against wheat powdery mildew in vivo: 100%
[6]; 100 ppm
  protectant activity against wheat powdery mildew in vivo: 100%
[6]; 400 ppm
  protectant activity against wheat powdery mildew in vivo: 100%
[7]; 25 ppm
  protectant activity against cucumber downy mildew in vivo: 100%
[7]; 50 ppm
  protectant activity against cucumber downy mildew in vivo: 100%
[7]; 100 ppm
  protectant activity against cucumber downy mildew in vivo: 100%
[7]; 400 ppm
  protectant activity against cucumber downy mildew in vivo: 100%

## CCc1ncnc(NCCc2ccc(Oc3ccc(Cl)cc3)c(OC)c2)c1Cl [II-1965]
[1]; 600 ppm
  control (test results against diamond back moth): 100%
[2]; 600 ppm
  control (test results against armyworm): 100%
[3]; 10 mg/L
  Insecticidal activity against peach aphid (%): 100%
[3]; 100 mg/L
  Insecticidal activity against peach aphid (%): 100%
[3]; 600 mg/L
  Insecticidal activity against peach aphid (%): 100%
[3]; 10 ppm
  control (test results against green peach aphid): 100%
[3]; 100 ppm
  control (test results against green peach aphid): 100%
[3]; 600 ppm
  control (test results against green peach aphid): 100%
[4]; 100 ppm
  control against carmine spider mite: 100%
[4]; 600 ppm
  control against carmine spider mite: 100%
[5]; 400 ppm
  protectant activity against corn rust in vivo: 100%
[6]; 400 ppm
  protectant activity against wheat powdery mildew in vivo: 100%
[7]; 400 ppm
  protectant activity against cucumber downy mildew in vivo: 100%

## Cc1ncnc(NCCc2ccc(Oc3ccccc3)nc2)c1Cl [III-1]
[1]; 600 ppm
  control (test results against diamond back moth): 100%
[2]; 600 ppm
  control (test results against armyworm): 100%
[3]; 600 ppm
  control (test results against green peach aphid): 100%
[4]; 600 ppm
  control against carmine spider mite: 100%
[5]; 400 ppm
  protectant activity against corn rust in vivo: 100%
[6]; 6.25 mg/L
  control effect against wheat powdery mildew (%): 98%
[6]; 25 mg/L
  control effect against wheat powdery mildew (%): 98%
[6]; 100 mg/L
  control effect against wheat powdery mildew (%): 98%
[6]; 400 mg/L
  control effect against wheat powdery mildew (%): 100%
[6]; 400 ppm
  protectant activity against wheat powdery mildew in vivo: 100%
[7]; 12.5 mg/L
  control effect against cucumber downy mildew (%): 100%
[7]; 25 mg/L
  control effect against cucumber downy mildew (%): 100%
[7]; 50 mg/L
  control effect against cucumber downy mildew (%): 100%
[7]; 100 mg/L
  control effect against cucumber downy mildew (%): 100%
[7]; 400 mg/L
  control effect against cucumber downy mildew (%): 100%
[7]; 12.5 ppm
  protectant activity against cucumber downy mildew in vivo: 100%
[7]; 25 ppm
  protectant activity against cucumber downy mildew in vivo: 100%
[7]; 50 ppm
  protectant activity against cucumber downy mildew in vivo: 100%
[7]; 100 ppm
  protectant activity against cucumber downy mildew in vivo: 100%
[7]; 400 ppm
  protectant activity against cucumber downy mildew in vivo: 100%

## Cc1ccc(Oc2ccc(CCNc3ncnc(C)c3Cl)cn2)cc1 [III-16]
[1]; 600 ppm
  control (test results against diamond back moth): 100%
[2]; 600 ppm
  control (test results against armyworm): 100%
[3]; 100 ppm
  control (test results against green peach aphid): 100%
[3]; 600 ppm
  control (test results against green peach aphid): 100%
[4]; 100 mg/L, contrastive test
  Insecticidal activity against carmine spider mite (% ): 100%
[4]; 600 mg/L, contrastive test
  Insecticidal activity against carmine spider mite (% ): 100%
[4]; 100 ppm
  control against carmine spider mite: 100%
[4]; 600 ppm
  control against carmine spider mite: 100%
[5]; 400 ppm
  protectant activity against corn rust in vivo: 100%
[6]; 400 ppm
  protectant activity against wheat powdery mildew in vivo: 100%
[7]; 6.25 mg/L
  control effect against cucumber downy mildew (%): 100%
[7]; 12.5 mg/L
  control effect against cucumber downy mildew (%): 100%
[7]; 25 mg/L
  control effect against cucumber downy mildew (%): 100%
[7]; 50 mg/L
  control effect against cucumber downy mildew (%): 100%
[7]; 100 mg/L
  control effect against cucumber downy mildew (%): 100%
[7]; 400 mg/L
  control effect against cucumber downy mildew (%): 100%
[7]; 6.25 ppm
  protectant activity against cucumber downy mildew in vivo: 100%
[7]; 12.5 ppm
  protectant activity against cucumber downy mildew in vivo: 100%
[7]; 25 ppm
  protectant activity against cucumber downy mildew in vivo: 100%
[7]; 50 ppm
  protectant activity against cucumber downy mildew in vivo: 100%
[7]; 100 ppm
  protectant activity against cucumber downy mildew in vivo: 100%
[7]; 400 ppm
  protectant activity against cucumber downy mildew in vivo: 100%

## COc1ccc(Oc2ccc(CCNc3ncnc(C)c3Cl)cn2)cc1 [III-19]
[1]; 600 ppm
  control (test results against diamond back moth): 100%
[2]; 600 ppm
  control (test results against armyworm): 100%
[3]; 600 ppm
  control (test results against green peach aphid): 100%
[4]; 600 ppm
  control against carmine spider mite: 100%
[5]; 400 ppm
  protectant activity against corn rust in vivo: 100%
[6]; 400 ppm
  protectant activity against wheat powdery mildew in vivo: 100%
[7]; 6.25 mg/L
  control effect against cucumber downy mildew (%): 95%
[7]; 12.5 mg/L
  control effect against cucumber downy mildew (%): 98%
[7]; 25 mg/L
  control effect against cucumber downy mildew (%): 100%
[7]; 50 mg/L
  control effect against cucumber downy mildew (%): 100%
[7]; 100 mg/L
  control effect against cucumber downy mildew (%): 100%
[7]; 400 mg/L
  control effect against cucumber downy mildew (%): 100%
[7]; 25 ppm
  protectant activity against cucumber downy mildew in vivo: 100%
[7]; 50 ppm
  protectant activity against cucumber downy mildew in vivo: 100%
[7]; 100 ppm
  protectant activity against cucumber downy mildew in vivo: 100%
[7]; 400 ppm
  protectant activity against cucumber downy mildew in vivo: 100%

## CCc1ncnc(NCCc2ccc(Oc3ccccc3)nc2)c1Cl [III-181]
[1]; 600 ppm
  control (test results against diamond back moth): 100%
[2]; 600 ppm
  control (test results against armyworm): 100%
[3]; 10 mg/L
  Insecticidal activity against peach aphid (%): 100%
[3]; 100 mg/L
  Insecticidal activity against peach aphid (%): 100%
[3]; 600 mg/L
  Insecticidal activity against peach aphid (%): 100%
[3]; 10 ppm
  control (test results against green peach aphid): 100%
[3]; 100 ppm
  control (test results against green peach aphid): 100%
[3]; 600 ppm
  control (test results against green peach aphid): 100%
[4]; 100 mg/L, contrastive test
  Insecticidal activity against carmine spider mite (% ): 100%
[4]; 600 mg/L, contrastive test
  Insecticidal activity against carmine spider mite (% ): 100%
[4]; 100 ppm
  control against carmine spider mite: 100%
[4]; 600 ppm
  control against carmine spider mite: 100%
[5]; 400 ppm
  protectant activity against corn rust in vivo: 100%
[6]; 400 ppm
  protectant activity against wheat powdery mildew in vivo: 100%
[7]; 25 mg/L
  control effect against cucumber downy mildew (%): 100%
[7]; 50 mg/L
  control effect against cucumber downy mildew (%): 100%
[7]; 100 mg/L
  control effect against cucumber downy mildew (%): 100%
[7]; 400 mg/L
  control effect against cucumber downy mildew (%): 100%
[7]; 25 ppm
  protectant activity against cucumber downy mildew in vivo: 100%
[7]; 50 ppm
  protectant activity against cucumber downy mildew in vivo: 100%
[7]; 100 ppm
  protectant activity against cucumber downy mildew in vivo: 100%
[7]; 400 ppm
  protectant activity against cucumber downy mildew in vivo: 100%

## CCc1ncnc(NCCc2ccc(Oc3ccc(C)cc3)nc2)c1Cl [III-196]
[1]; 100 mg/L
  Insecticidal activity against diamond back moth (%): 100%
[1]; 600 mg/L
  Insecticidal activity against diamond back moth (%): 100%
[1]; 100 ppm
  control (test results against diamond back moth): 100%
[1]; 600 ppm
  control (test results against diamond back moth): 100%
[2]; 600 ppm
  control (test results against armyworm): 100%
[3]; 100 ppm
  control (test results against green peach aphid): 100%
[3]; 600 ppm
  control (test results against green peach aphid): 100%
[4]; 600 ppm
  control against carmine spider mite: 100%
[5]; 400 ppm
  protectant activity against corn rust in vivo: 100%
[6]; 400 ppm
  protectant activity against wheat powdery mildew in vivo: 100%
[7]; 6.25 mg/L
  control effect against cucumber downy mildew (%): 85%
[7]; 12.5 mg/L
  control effect against cucumber downy mildew (%): 85%
[7]; 25 mg/L
  control effect against cucumber downy mildew (%): 100%
[7]; 50 mg/L
  control effect against cucumber downy mildew (%): 100%
[7]; 100 mg/L
  control effect against cucumber downy mildew (%): 100%
[7]; 400 mg/L
  control effect against cucumber downy mildew (%): 100%
[7]; 25 ppm
  protectant activity against cucumber downy mildew in vivo: 100%
[7]; 50 ppm
  protectant activity against cucumber downy mildew in vivo: 100%
[7]; 100 ppm
  protectant activity against cucumber downy mildew in vivo: 100%
[7]; 400 ppm
  protectant activity against cucumber downy mildew in vivo: 100%
